Earlier results, collected in patent US20220226232A1, “Dental formulation comprising xylitol and propolis” (SERVIDENCE INC., priority 2021, published 2022).

Conditions: oral exposition

OC[C@@H](O)[C@H](O)[C@@H](O)CO [xylitol]
prevention of otitis: 20%
